Laboratory results published in patent US20240299424A1, “USE OF PHYTOCANNABINOIDS FOR TREATING ENDOMETRIAL CANCER AND ENDOMETRIOSIS” (INTEGRATIVE THERAPY DISCOVERY LAB S.R.L., priority 2021, published 2024).

Assays:
Ishikawa cells = experiment: MTT cell viability assay, Ishikawa type I endometrial cancer cell line; assay type: cell-based, human; details: 72 hours; for cytotoxicity (cell viability, % vs vehicle) in combination: in double with cannabidiol (10, 15 and 20 microM CBD), FIG. 3-4; for cytotoxicity (cell viability, % vs vehicle): phytocannabinoid alone, FIG. 1; for cytotoxicity (cell viability, % vs vehicle) in combination with chemotherapeutic drugs: with paclitaxel (PAC), doxorubicin (DOX) and cisplatin (CIS), FIG. 7-10
Protocol: (§1) Ishikawa is a well differentiated type I cell line, was purchased from Sigma Aldrich (Milan, Italy). Ishikawa cells were grown in EMEM medium (Lonza, Milan, Italy), supplemented with 5% fetal bovine serum (FBS), 2 mM/L of glutamine, 100 IU/ml of penicillin, and […] of streptomycin. Primary EC cells PCEM004A, poorly differentiated mixed type I/II cell line, was grown in RPMI1640, supplemented with 20% FBS, 2 mM/L of glutamine, 100 IU/ml of penicillin, and […] of streptomycin. Immortalized human endometriotic cell line (12Z) was generated by infecting cells, obtained from a person undergoing laparoscopy, with SV40 virus. This cell line was purchased by Applied Biological Materials Inc and was maintained in Prigrow III medium supplemented with 20% no-heat inactivated FBS, 100 IU/ml of penicillin and […] of streptomycin. Human pancreatic ductal adenocarcinoma PANC-1 cell line was purchased by Sigma Aldrich (Milan, Italy) and cultured in DMEM high glucose medium (EuroClone, Milan, Italy) supplemented with 10% FBS, 2 mM L-glutamine, 100 IU/mL penicillin, […] streptomycin and 1 mM sodium pyruvate. The human glioblastoma U251 cell line (grade IV), obtained from European Collection of Cell Cultures (ECACC, Salisbury, UK), was maintained in EMEM supplemented with 10% FBS, 2 mmol/L L-glutamine, 100 IU/mL penicillin and 100 μg streptomicin. Media were changed every 48 hours until cells were 90% confluent. All cell lines were maintained at 37 C with 5% CO2 and 95% humidity.
(§2) EC cell lines, PANC-1, U251, and 12Z (3×10^4 cells/ml) were plated in 96-well plates, in a final volume of 100 microl/well. After 24 hours, treatments or vehicles were added for 72 hours. At least six replicates were used for each treatment. At the indicated time point, cell viability was assessed by adding 0.8 mg/ml of 3-[4,5-dimethylthiazol-2-yl]-2,5 diphenyl tetrazolium bromide (MTT, Sigma-Aldrich) to the media. After 3 hours, the plates were centrifuged, the supernatant was removed, and the pellet was solubilized with 100 microl/well of DMSO. The absorbance of the samples against a background control (medium alone) was measured at 570 nm using an ELISA reader microliter plate (BioTek Instruments, Winooski, VT, United States). IC50 was calculated by PRISM 5.0a software, for single phytocannabinoids.

PCEM004A cells = experiment: MTT cell viability assay, primary mixed type PCEM004A endometrial cancer cell line; assay type: cell-based, human; details: 72 hours; for cytotoxicity (cell viability, % vs vehicle): phytocannabinoid alone, FIG. 5; for cytotoxicity (cell viability, % vs vehicle) in combination with chemotherapeutic drugs: with paclitaxel (PAC), doxorubicin (DOX) and cisplatin (CIS), FIG. 7-10
Protocol: as §1, §2

PANC-1 cells = experiment: MTT cell viability assay, PANC-1 pancreatic ductal adenocarcinoma cell line; assay type: cell-based, human; details: PANC-1, 72 hours post-treatment, FIG. 11
Protocol: as §1, §2

U251 cells = experiment: MTT cell viability assay, U251 glioblastoma cell line; assay type: cell-based, human; details: U251, 72 hours post-treatment, FIG. 13
Protocol: as §1, §2

[1] = tested on: 12Z endometriotic cell line; experiment: MTT cell viability assay, 12Z endometriotic cell line; assay type: cell-based, human; details: single administration, 72 hours post-treatment, FIG. 15-20
Protocol: as §1, §2

[2] = tested on: 12Z endometriotic cell line; experiment: Transwell invasion assay, 12Z endometriotic cells; assay type: cell-based, human; details: non-cytotoxic dose, 24 hours, Transwell/Matrigel, major effect order THC>CBG>CBD>CBDV>CBN>CBC, FIG. 22-30
Protocol: as §1
12Z cell invasion was evaluated by Transwell invasion assay using Transwell chambers (BD Biosciences, Franklin Lakes, NJ, USA) characterized by the upper face of the polycarbonate membrane covered with 1 mg/ml Matrigel. A total of 750 μl cell culture medium supplemented with 10% FBS was added in the lower chamber. Serum free culture medium ([…]) containing 2.5×10^4 12Z endometriotic cells was plated into the upper chamber with the appropriate treatment. After 24 hours of incubation, the cells remaining in the upper chamber were removed by cotton swabs. The cells on the lower and inner surface of the membrane were fixed in cold methanol, stained with hoechst and observed using a fluorescence microscope (BX51 fluorescence microscope, Olympus, Milan, Italy). A total of ten fields at ×10 magnification were selected at random to measure the average cell coverage using ImageJ software version 1.45s (National Institutes of Health, Bethesda, MD, USA). The experiments were performed in triplicate at least three times independently.

[3] = tested on: endometrial cancer cell lines; experiment: MTT cell viability, endometrial cancer cell lines tested (Ishikawa and PCEM004A, stated jointly); assay type: cell-based, human; details: for dose dependence of effect on cell viability: individual phytocannabinoids
Protocol: as §1, §2

IL-33 = experiment: RT/PCR TaqMan array, IL-33 gene expression in 12Z cells; assay type: cell-based, human; details: 48 hours, CBG, CBC, CBN 30 microM, CBD, CBDV 10 microM, THC 40 microM
Protocol: (§3) Total RNA from untreated or single treated 12Z cell line with CBD, CBG, CBC, CBN, CBDV and THC was extracted using Rneasy Mini kit (Qiagen, Milan, Italy). One microgram of total RNA from each sample was subjected to reverse transcription in a total volume of 20 μL using the High-Capacity cDNA Archive Kit (Applied Biosystem, Foster City, PA, USA) according to the instructions. cDNAs were analyzed by qRT-PCR performed using an IQ5 Multicolor Real time PCR Detection system. Quantitative real-time gene expression was performed with the TaqMan® Array Plate, containing 15 associated cytokine genes and beta-actin as endogenous control gene, was purchased (Thermo Fisher, Grand Island, NY, USA) and used to evaluate the treatments in modulating 12Z-related genes. Measurement of housekeeping gene (beta-Actin) on the samples was used to normalize mRNA content. The gene expression levels of treated cell lines were expressed as normalized fold compared with vehicle-treated cells.

IL-1beta = experiment: RT/PCR TaqMan array, IL-1beta gene expression in 12Z cells; assay type: cell-based, human; details: 48 hours, CBG, CBC, CBN 30 microM, CBD, CBDV 10 microM, THC 40 microM
Protocol: as §3

IL-6 = experiment: RT/PCR TaqMan array, IL-6 gene expression in 12Z cells; assay type: cell-based, human; details: 48 hours, CBG, CBC, CBN 30 microM, CBD, CBDV 10 microM, THC 40 microM
Protocol: as §3

CXCL8 = experiment: RT/PCR TaqMan array, CXCL8 gene expression in 12Z cells; assay type: cell-based, human; details: 48 hours, CBG, CBC, CBN 30 microM, CBD, CBDV 10 microM, THC 40 microM
Protocol: as §3

STAT-3 = experiment: RT/PCR TaqMan array, STAT-3 gene expression in 12Z cells; assay type: cell-based, human; details: 48 hours, CBG, CBC, CBN 30 microM, CBD, CBDV 10 microM, THC 40 microM
Protocol: as §3

[4] = tested on: type I cells and mixed type endometrial cancer cell lines; details: cited from earlier work

## CCCCCc1cc(O)c2c(c1)OC(C)(CCC=C(C)C)C=C2 (stereo not drawn) [CBC, 2-methyl-2-(4-methylpent-3-enyl)-7-pentylchromen-5-ol]
Ishikawa cells
  cytotoxicity (cell viability, % vs vehicle) in combination: induced cytotoxicity
  cytotoxicity (cell viability, % vs vehicle): induced cytotoxicity
  cytotoxicity (cell viability, % vs vehicle) in combination with chemotherapeutic drugs: induced cytotoxicity
PCEM004A cells
  cytotoxicity (cell viability, % vs vehicle): induced cytotoxicity
  cytotoxicity (cell viability, % vs vehicle) in combination with chemotherapeutic drugs: induced cytotoxicity
PANC-1 cells
  cytotoxicity (cell viability, % vs vehicle): induced cytotoxicity
U251 cells
  cytotoxicity (cell viability, % vs vehicle): induced cytotoxicity
[1]
  cytotoxicity (cell viability, % vs vehicle): induced cytotoxicity
[2]
  endometriosis cell invasion: effective in reducing endometriosis cells invasion
[3]; endometrial cancer cell lines
  dose dependence of effect on cell viability: dose dependent effect

## C=C(C)[C@@H]1CCC(C)=C[C@H]1c1c(O)cc(CCCCC)cc1O [CBD, 2-[(1R,6R)-3-methyl-6-prop-1-en-2-ylcyclohex-2-en-1-yl]-5-pentylbenzene-1,3-diol, reference compound]
[1]
  cytotoxicity (cell viability, % vs vehicle): induced cytotoxicity
[2]
  endometriosis cell invasion: effective in reducing endometriosis cells invasion
IL-33
  IL-33 gene expression (normalized versus vehicle): reduced
IL-1beta
  IL-1beta gene expression (normalized versus vehicle): reduced
IL-6
  IL-6 gene expression (normalized versus vehicle): reduced
CXCL8
  CXCL8 gene expression (normalized versus vehicle): reduced
STAT-3
  STAT-3 gene expression (normalized versus vehicle): reduced
[3]; endometrial cancer cell lines
  dose dependence of effect on cell viability: dose dependent effect
[4]; endometrial cancer cell lines
  chemotherapeutic drugs cytotoxicity: improves chemotherapeutic drugs cytotoxicity
[4]; type I cells (cell death) and mixed type endometrial cancer cell lines (autophagy)
  cell viability: reduces cell viability

## C=C(C)[C@@H]1CCC(C)=C[C@H]1c1c(O)cc(CCC)cc1O [CBDV, 2-[(1R,6R)-3-methyl-6-prop-1-en-2-ylcyclohex-2-en-1-yl]-5-propylbenzene-1,3-diol]
Ishikawa cells
  cytotoxicity (cell viability, % vs vehicle) in combination: induced cytotoxicity
  cytotoxicity (cell viability, % vs vehicle): induced cytotoxicity
  cytotoxicity (cell viability, % vs vehicle) in combination with chemotherapeutic drugs: induced cytotoxicity
PCEM004A cells
  cytotoxicity (cell viability, % vs vehicle): induced cytotoxicity
  cytotoxicity (cell viability, % vs vehicle) in combination with chemotherapeutic drugs: induced cytotoxicity
PANC-1 cells
  cytotoxicity (cell viability, % vs vehicle): induced cytotoxicity
U251 cells
  cytotoxicity (cell viability, % vs vehicle): induced cytotoxicity
[1]
  cytotoxicity (cell viability, % vs vehicle): induced cytotoxicity
[2]
  endometriosis cell invasion: effective in reducing endometriosis cells invasion
IL-33
  IL-33 gene expression (normalized versus vehicle): reduced
IL-6
  IL-6 gene expression (normalized versus vehicle): reduced
CXCL8
  CXCL8 gene expression (normalized versus vehicle): reduced
[3]; endometrial cancer cell lines
  dose dependence of effect on cell viability: dose dependent effect

## CCCCCc1cc(O)c(C/C=C(\C)CCC=C(C)C)c(O)c1 [CBG, 2-[(2E)-3,7-dimethylocta-2,6-dienyl]-5-pentylbenzene-1,3-diol]
Ishikawa cells
  cytotoxicity (cell viability, % vs vehicle) in combination: induced cytotoxicity
  cytotoxicity (cell viability, % vs vehicle): induced cytotoxicity
  cytotoxicity (cell viability, % vs vehicle) in combination with chemotherapeutic drugs: induced cytotoxicity
PCEM004A cells
  cytotoxicity (cell viability, % vs vehicle): induced cytotoxicity
  cytotoxicity (cell viability, % vs vehicle) in combination with chemotherapeutic drugs: induced cytotoxicity
PANC-1 cells
  cytotoxicity (cell viability, % vs vehicle): induced cytotoxicity
U251 cells
  cytotoxicity (cell viability, % vs vehicle): induced cytotoxicity
[1]
  cytotoxicity (cell viability, % vs vehicle): induced cytotoxicity
[2]
  endometriosis cell invasion: effective in reducing endometriosis cells invasion
IL-33
  IL-33 gene expression (normalized versus vehicle): reduced
IL-1beta
  IL-1beta gene expression (normalized versus vehicle): reduced
CXCL8
  CXCL8 gene expression (normalized versus vehicle): reduced
[3]; endometrial cancer cell lines
  dose dependence of effect on cell viability: dose dependent effect

## CCCCCc1cc(O)c2c(c1)OC(C)(C)c1ccc(C)cc1-2 [CBN, 6,6,9-trimethyl-3-pentylbenzo[c]chromen-1-ol]
Ishikawa cells
  cytotoxicity (cell viability, % vs vehicle) in combination: induced cytotoxicity
  cytotoxicity (cell viability, % vs vehicle): induced cytotoxicity
  cytotoxicity (cell viability, % vs vehicle) in combination with chemotherapeutic drugs: induced cytotoxicity
PCEM004A cells
  cytotoxicity (cell viability, % vs vehicle): induced cytotoxicity
  cytotoxicity (cell viability, % vs vehicle) in combination with chemotherapeutic drugs: induced cytotoxicity
PANC-1 cells
  cytotoxicity (cell viability, % vs vehicle): induced cytotoxicity
U251 cells
  cytotoxicity (cell viability, % vs vehicle): induced cytotoxicity
[1]
  cytotoxicity (cell viability, % vs vehicle): induced cytotoxicity
[2]
  endometriosis cell invasion: effective in reducing endometriosis cells invasion
CXCL8
  CXCL8 gene expression (normalized versus vehicle): reduced
[3]; endometrial cancer cell lines, order: CBN, followed by CBDV, CBG, THC and CBC
  efficacy in reducing cell viability (rank among individual phytocannabinoids): highest
[3]; endometrial cancer cells, combinations of phytocannabinoids
  efficacy of phytocannabinoid combinations in reducing cell viability: amplified the effect of all cannabinoids

## CCCCCc1cc(O)c2c(c1)OC(C)(C)[C@@H]1CCC(C)=C[C@@H]21 [THC, (6aR,10aR)-6,6,9-trimethyl-3-pentyl-6a,7,8,10a-tetrahydrobenzo[c]chromen-1-ol, reference compound]
Ishikawa cells
  cytotoxicity (cell viability, % vs vehicle) in combination: induced cytotoxicity
  cytotoxicity (cell viability, % vs vehicle): induced cytotoxicity
  cytotoxicity (cell viability, % vs vehicle) in combination with chemotherapeutic drugs: induced cytotoxicity
PCEM004A cells
  cytotoxicity (cell viability, % vs vehicle): induced cytotoxicity
  cytotoxicity (cell viability, % vs vehicle) in combination with chemotherapeutic drugs: induced cytotoxicity
PANC-1 cells
  cytotoxicity (cell viability, % vs vehicle): induced cytotoxicity
U251 cells
  cytotoxicity (cell viability, % vs vehicle): induced cytotoxicity
[1]
  cytotoxicity (cell viability, % vs vehicle): induced cytotoxicity
[2]
  endometriosis cell invasion: effective in reducing endometriosis cells invasion
IL-6
  IL-6 gene expression (normalized versus vehicle): reduced
[3]; endometrial cancer cell lines
  dose dependence of effect on cell viability: dose dependent effect
